# Results as given in patent US6713048B2, “Δ9 tetrahydrocannabinol (Δ9 THC) solution metered dose inhalers and methods of use” (Virginia Commonwealth University, priority 1998, dated 2004).
# “Also recorded” adds a separate entry of the source.
# Key:
# [1] = MDI fine particle dose (Andersen Cascade Impactor); assay type: physicochemical; conditions: HFA 134a-ethanol MDI; 40° C., 82% relative humidity, 28 days
# Method: A Δ^9 THC MDI was formulated and the physical properties of the aerosolized drug characterized. The mass of drug metered by the metering valve was determined following a single actuation (metered dose). The mass of drug delivered (emitted dose) was determined. The mass of particles with an aerodynamic diameter less than 4.7 μm was determined.
# Appearance, metered dose reproducibility, emitted dose and particle size distribution of the Δ^9 THC MDI were investigated, before and after storage in an environment maintained at 40° C. and 82% relative humidity for a 28 day period. The mass of drug metered by the metering valve (metered dose, n=10) was determined by collecting single actuations directly from the valve in a puff absorber, using the methods of Byron, 1994.
# THC was analyzed by LC-UV detection at 280 nm using a 75:25 acetonitrile: 1% acetic acid mobile phase for Δ^9-THC detection. A standard reverse phase C18 column was used.
# [2] = Blood levels of Δ^9-THC by LC-MS; conditions: mouse, whole blood
# Method: Whether inhalation exposure to Δ^9 THC aerosol would elicit pharmacological effects indicative of cannabinoid activity in mice (Compton, D. R., Rice, K. C., De Costa, B. R., Rzdan, R. K., Melvin, L. S., Johnson, M. R., Martin, B. R., Cannabinoid structure-activity relationships: Correlation of receptor binding and in vivo activities, J Pharmacol Exp Ther, 265:218-226 (1993); Little et al., 1988) was determined.
# Blood and brain levels of Δ^9-THC were determined as follows. Extraction and LC-MS quantification of Δ^9-THC from whole blood and brain tissue were modified from Lichtman, A. H., Poklis, J. L., Wilson, D. M., Martin, B. R., The pharmacological activity of inhalation exposure to marijuana smoke in mice, Drug Alc Depend, 63:107-116 (2001). Particularly, THC and 2H^3-THC were extracted from brain material which contains a high degree of lipids. Acetonitrile was added to the pelletized solids and stored in a freezer overnight to separate the acetonitrile layer (which contained THC/2H^3-THC) from the aqueous layers. The following day the acetonitrile layer was removed. In the Lichtman et al., study, 2 ml of 9:1 NaOH was added and the sample was vortexed. Four ml of 9:1 hexane:ethyl acetate was added and the sample was vortexed and spun […] for 30 minutes. The vials were then centrifuged at 4,000 rpm […] for 10 minutes. The organic layer was removed and evaporated. Upon drying, a derivatizing agent was added and the sample was vortexed, and each sample analyzed by GC/MS. In the present experimentation, the acetonitrile was instead evaporated to dryness under nitrogen. The material was then resolubilized in 0.1 ml methanol. LC-MS identification was used to quantify Δ^9-THC/2H^3-THC in blood and brain matrices. […] Fifty ng of ^2H3-THC (Radian Corporation, Austin, Tex.) was added to the blood sample, brain homogenate, and calibrators as an internal standard. Following an equilibration period, 2.5 ml of cold acetonitrile (HPLC grade, Fisher Scientific, Raleigh, N.C.) was added drop-wise while vortexing. The samples were then centrifuged (Precision Vari-Hi-Speed Centricone, Precision Scientific Co., Chicago, Ill.) at 2500 rpm for 15 minutes to pelletize solids, then stored in the freezer (−20° C.) overnight, allowing the acetonitrile layer to separate from the aqueous layers. The acetonitrile layer was then removed and evaporated to dryness under nitrogen. The Δ^9-THC/^2H3-THC was then resolubilized in 0.1 ml methanol (HPLC grade, Fisher Scientific).
# LC-MS identification was used for quantification of Δ^9-THC and ^2H3-THC in blood and brain matrices using an 85:15 methanol: 1% glacial acetic acid (0.1% formic acid) mobile phase. A guard column was used inline with the standard reverse phase C18 column. The mass spectrometer was run in APCI+mode. Ions analyzed in single ion monitoring mode were 315 for Δ^9-THC and 318 for ^2H3-THC. A calibration curve was constructed for each assay based on linear regression using the peak-area ratios of Δ^9-THC to ^2H3-THC of the extracted calibration samples.
# [3] = system: AIDS-associated anorexia and cachexia; conditions: oral 2.5 mg THC twice daily; 139 patients; 42 days; cited from earlier work
# [4] = system: Nausea and emesis due to Cancer chemotherapy; conditions: oral 5 or 15 mg/m^2 THC four times per day; 53 patients refractory to other antiemetics; cited from earlier work
# [5] = system: Spasticity related to multiple sclerosis; conditions: oral 10 or 15 mg THC, rectal 5 or 10 mg THC; 2 patients; cited from earlier work
# [6] = system: Spasticity related to multiple sclerosis; conditions: 13 patients, cited from earlier work
# [7] = system: Nausea and emesis due to Cancer chemotherapy; conditions: oral 10 mg/m^2 THC; refractory to other antiemetics; cited from earlier work
# asthmatic patients = conditions: low concentration aerosol; cited from earlier work
# [8] = system: AIDS-associated anorexia and cachexia; conditions: oral 2.5 mg THC once or twice daily increasing to 20 mg daily; 94 patients; 12 months; cited from earlier work
# [9] = system: Nausea and emesis due to Cancer chemotherapy; conditions: oral THC 15 mg/m^2, cited from earlier work
# [10] = system: Pain due to advanced cancer; conditions: oral 5, 10, 15 or 20 mg THC; 10 patients; cited from earlier work
# [11] = system: Pain due to advanced cancer; conditions: 10 and 20 mg THC, 60 and 120 codeine; 34 patients; cited from earlier work
# [12] = system: healthy and asthmatic subjects; conditions: aerosolized Δ^9-THC from MDI, cited from earlier work
smiles,measurement,setting,value
"CCCCCc1cc(O)c2c(c1)OC(C)(C)[C@@H]1CCC(C)=C[C@@H]21 (relative stereo) [Δ^9 THC, (6aR-trans)-6a,7,8,10a-tetrahydro-6,6,9-trimethyl-3-pentyl-6H-dibenzo[b,d]-pyran-1-ol]",deterioration/degradation of Δ^9-THC content on storage,[1],no deterioration; also recorded: no significant degradation
same,concentration at 20 min,"[2]; inhaled, 20 actuations",409 ± 86 ng/g
same,concentration at 20 min,"[2]; inhaled, 40 actuations",788 ± 273 ng/g
same,concentration at 20 min,"[2]; inhaled, 60 actuations",1130 ± 240 ng/g
same,concentration at 20 min,"[2]; iv, 1 mg/kg",102 ± 6 ng/g
same,concentration at 20 min,"[2]; iv, 3 mg/kg",365 ± 39 ng/g
same,concentration at 20 min,"[2]; iv, 10 mg/kg",1320 ± 38 ng/g
same,appetite increase over baseline,[3],Appetite increased 38%
same,nausea,[3],THC also decreased
same,weight change between THC and placebo groups,[3],nausea. No significant
same,patients with THC-induced partial or complete blockade of vomiting,[4],72% of patients exhibited a
same,passive mobility and walking ability,[5],Improvement in passive
same,objective measurements of spasticity,[6]; oral 2.5 to 15 mg THC once or twice daily,no significant improvement
same,subjective improvement in spasticity,"[6]; oral, at 7.5 mg THC and higher, once or twice daily",Significant subjective
same,courses resulting in a reduction of vomiting (of 20 courses of THC),[7],"resulted in no vomiting, 9"
same,courses resulting in no decrease in vomiting (of 20 courses of THC),[7],"vomiting, 3 resulted in no"
same,courses resulting in no vomiting (of 20 courses of THC),[7],"In 20 courses of THC, 5"
same,bronchial and systemic effects,asthmatic patients,bronchodilation without systemic side effects
same,appetite compared to controls,[8],improved appetite and only
same,weight compared to controls,[8],tended to increase weight
same,patients with reduction in chemotherapy-induced nausea and vomiting,[9]; 36 patients refractory to prochlorperazine or thiethylperazine,64% of patients given THC
same,side effects,[9]; 36 patients,effects included dysphoria;
same,appetite,[10],"appetite stimulation,"
same,mood,[10],elevated mood
same,pain,[10],Pain relief
same,analgesic potency compared with codeine,[11],greater potency than
same,degree of analgesia compared with codeine,[11],THC produced a similar
same,"systemic side effects (increased heart rate, subjective reports of being 'high')","[12]; healthy patients, at higher doses",substantial systemic side effects
same,bronchial effect in healthy patients,[12]; healthy patients,bronchodilation was seen
same,bronchial effect in asthmatic patients,[12]; some asthmatic patients,bronchoconstriction occurred
